Results published in publication PMC5907398, “Inhibition of Acetylcholinesterase and Butyrylcholinesterase by a Plant Secondary Metabolite Boldine” (BioMed Research International, 2018).

Assays:
[1] = molecular target: T1, Butyrylcholinesterase (BChE) (Homo sapiens, UniProt P06276); test: Ellman spectrophotometric assay with butyrylthiocholine, Dixon plot; format: biochemical; conditions: read-out: IC50 (μmol/l) by spectrophotometry
T1 construct: from human serum

[2] = molecular target: T2, Acetylcholinesterase (AChE) (Homo sapiens, UniProt P22303); test: Ellman spectrophotometric assay with acetylthiocholine, Dixon plot; format: biochemical; conditions: read-out: IC50 (μmol/l) by spectrophotometry
T2 construct: human, recombinant (expressed in HEK 293 cells)
T2 sequence (P22303 32-614): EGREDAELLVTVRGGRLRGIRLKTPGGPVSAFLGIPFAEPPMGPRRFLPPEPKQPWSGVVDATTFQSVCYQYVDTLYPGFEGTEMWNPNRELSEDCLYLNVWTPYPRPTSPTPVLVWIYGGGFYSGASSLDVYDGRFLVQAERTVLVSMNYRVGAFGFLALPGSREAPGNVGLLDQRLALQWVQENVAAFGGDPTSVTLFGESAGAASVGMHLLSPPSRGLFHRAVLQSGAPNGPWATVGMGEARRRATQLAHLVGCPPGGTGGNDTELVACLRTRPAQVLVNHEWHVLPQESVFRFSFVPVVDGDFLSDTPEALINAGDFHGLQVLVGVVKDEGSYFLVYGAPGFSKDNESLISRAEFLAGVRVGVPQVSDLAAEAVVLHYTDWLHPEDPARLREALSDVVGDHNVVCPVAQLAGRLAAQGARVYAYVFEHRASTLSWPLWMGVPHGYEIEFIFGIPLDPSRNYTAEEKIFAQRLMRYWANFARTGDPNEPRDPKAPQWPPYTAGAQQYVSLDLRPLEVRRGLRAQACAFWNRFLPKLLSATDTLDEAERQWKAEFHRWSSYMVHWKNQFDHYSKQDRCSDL

T1 sequence (P06276 29-602): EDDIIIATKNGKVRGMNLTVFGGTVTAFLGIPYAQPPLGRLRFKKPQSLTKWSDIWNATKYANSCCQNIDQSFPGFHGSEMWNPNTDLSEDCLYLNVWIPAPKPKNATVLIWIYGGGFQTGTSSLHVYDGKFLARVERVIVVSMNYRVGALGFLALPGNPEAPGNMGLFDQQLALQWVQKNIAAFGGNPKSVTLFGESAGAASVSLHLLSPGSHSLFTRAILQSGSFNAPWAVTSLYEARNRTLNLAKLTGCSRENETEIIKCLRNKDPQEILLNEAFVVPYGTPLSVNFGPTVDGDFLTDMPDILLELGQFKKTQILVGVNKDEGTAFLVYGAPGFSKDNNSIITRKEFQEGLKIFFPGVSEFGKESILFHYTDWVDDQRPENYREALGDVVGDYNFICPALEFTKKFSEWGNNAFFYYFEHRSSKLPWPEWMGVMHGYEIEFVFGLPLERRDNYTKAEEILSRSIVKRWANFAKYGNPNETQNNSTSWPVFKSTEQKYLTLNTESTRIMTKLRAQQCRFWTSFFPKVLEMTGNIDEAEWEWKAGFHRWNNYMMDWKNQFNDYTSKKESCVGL

Compound: COc1cc2c(cc1O)C[C@H]1c3c(cc(O)c(OC)c3-2)CCN1C [boldine, (S)-2,9-dihydroxy-1,10-dimethoxy-aporphine]
- IC50 [1]: 322 µmol/L
- IC50 [2]: 372 µmol/L
